Series [1] concerns the target T1, hENT1 (es) in DU145 cells (Homo sapiens, UniProt Q99808).
T1 construct: functional es-mediated transport (hENT1) in DU145 cells; endogenous in cells; host or cells: DU145 cells
T1 sequence (Q99808 1-456): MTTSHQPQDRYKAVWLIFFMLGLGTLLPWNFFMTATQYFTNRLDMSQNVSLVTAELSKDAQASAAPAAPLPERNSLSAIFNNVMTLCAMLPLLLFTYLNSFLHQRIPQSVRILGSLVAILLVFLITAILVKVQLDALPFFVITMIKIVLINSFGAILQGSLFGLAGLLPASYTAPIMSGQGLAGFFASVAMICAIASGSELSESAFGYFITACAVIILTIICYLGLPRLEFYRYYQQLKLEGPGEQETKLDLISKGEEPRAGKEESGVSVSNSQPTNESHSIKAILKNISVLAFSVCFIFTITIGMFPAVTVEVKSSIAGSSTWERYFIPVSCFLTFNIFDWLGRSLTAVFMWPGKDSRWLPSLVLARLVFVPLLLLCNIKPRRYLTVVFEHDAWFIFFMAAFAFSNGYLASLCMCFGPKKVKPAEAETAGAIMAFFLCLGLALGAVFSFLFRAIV
The experiment in a line: Cellular uptake assay of 3H-labelled nucleoside, NT inhibitor and self-competition. Format: cell-based. Here is the method: FIG. 2 Comparative uptake of 10 μM [^3H]troxacitabine (0-240 min) (Panel B) and 10 μM [^3H]D-uridine (0-6 min) (Panel A) in the presence (▴) or absence ( ? ) of the hENT1 inhibitor, 100 nM NBMPP, in DU145 cells.
Cancer Res., 56: 4187-4191.
(FIG. 2A). In contrast, low levels of [^3H]troxacitabine were taken up and uptake was not affected by the presence of NBMPR (FIG. 2B).
DU145 cells: This experiment is designed to show whether [^3H]L-troxacitabine (10 μM) is taken up by DU145 cells and if the rate of uptake is affected by the addition of high concentrations (1 mM) of non-radioactive troxacitabine.

The target of series [2] is T2, hCNT3 (Homo sapiens, UniProt Q9HAS3).
T2 construct: Troxacitabine uptake by cib-activity (hCNT3) in differentiated HL-60 cells; endogenous in cells; host or cells: differentiated HL-60 cells
T2 sequence (Q9HAS3 1-691): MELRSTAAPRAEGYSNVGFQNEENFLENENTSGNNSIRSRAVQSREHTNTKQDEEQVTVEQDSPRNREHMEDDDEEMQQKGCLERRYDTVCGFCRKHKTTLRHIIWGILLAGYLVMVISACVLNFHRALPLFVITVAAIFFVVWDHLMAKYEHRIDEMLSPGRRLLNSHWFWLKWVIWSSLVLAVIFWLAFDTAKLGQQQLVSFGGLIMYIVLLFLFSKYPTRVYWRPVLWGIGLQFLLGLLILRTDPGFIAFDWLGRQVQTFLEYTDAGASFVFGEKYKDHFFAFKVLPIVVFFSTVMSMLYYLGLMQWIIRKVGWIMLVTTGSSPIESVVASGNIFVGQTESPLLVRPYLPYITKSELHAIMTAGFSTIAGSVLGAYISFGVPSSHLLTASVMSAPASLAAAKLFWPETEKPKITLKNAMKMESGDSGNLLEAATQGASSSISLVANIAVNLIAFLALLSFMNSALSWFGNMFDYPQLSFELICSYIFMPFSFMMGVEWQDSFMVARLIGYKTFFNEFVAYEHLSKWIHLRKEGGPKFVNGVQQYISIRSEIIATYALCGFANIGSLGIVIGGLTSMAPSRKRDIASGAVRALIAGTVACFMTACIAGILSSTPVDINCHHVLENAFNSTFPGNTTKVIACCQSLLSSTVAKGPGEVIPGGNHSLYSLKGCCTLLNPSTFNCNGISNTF
The experiment in a line: Inhibition of [3H]uridine uptake by cib-activity in differentiated HL-60 cells. The format is cell-based. Conditions: 100-fold non-radioactive excess.

As to `Nc1ccn([C@@H]2CO[C@H](CO)O2)c(=O)n1` [Troxacitabine, troxacitabine], in series [1] (10 μM labelled), the “effect of non-radioactive troxacitabine (1 mM) on uptake” value is “no significant effect”. In series [1] (10 μM, 0-240 min, 100 nM NBMPR), the “effect of NBMPR on uptake” value was “not affected”. For the same molecule, the rate of uptake entry in series [1] (10 μM, short (0-30 s) and prolonged exposures (0-4 h)) is “very slow”. For the same molecule, the “effect on [3H]uridine uptake by hCNT3” value in series [2] is listed as “no effect on uridine uptake”.
